Measured values as given in patent US20250188088A1, “COMPOUND AND USE THEREOF” (ONQUALITY PHARMACEUTICALS CHINA LTD., priority 2022, published 2025).
Converted amounts (≈) assume the structure as drawn. Read-outs that look alike come from different tables or passages of the source.

Key:
[1] = Log D measurement (n-octanol/PBS shake, LC-MS/MS); assay type: physicochemical; conditions: pH 7.4, read-out: LogD7.4 (Oct/buff)
Procedure: Two replicates of test compounds (DMSO stock solution 10 mM, 2 μL/well) and QCs (DMSO 10 mM, 2 μL/well) were transferred from the storage tube to a 96-well cluster tube. Add buffer-saturated n-octanol ([…]) and n-octanol-saturated PBS (149 μL/well) to each well; vortex mix the cluster tube for 1 minute, mix by shaking on a plate shaker at 880 rpm for one hour, and then centrifuge at 4000 rpm for 10 minutes. Remove the cover pad, accurately measure a certain amount of n-octanol layer samples (4 μL/well) into a 96-well plate containing n-octanol internal standard diluent (796 μL/well); accurately measure a certain amount of buffer salt layer samples (30 μL/well) into a 96-well plate containing buffer internal standard diluent (570 μL/well); the dilution factor of the sample can be adjusted according to different properties of the sample. Samples were analyzed using a triple quadrupole mass spectrometer. The processed sample solution was analyzed by the fast isocratic elution and small column retention method, the concentration correction was carried out by dilution factor and internal standard, and the ratio of the corrected peak area was used to calculate the final result (Log D/Log P value).

[2] = Thermodynamic solubility assay (PBS pH 6.5; isopropyl myristate); assay type: physicochemical; conditions: thermodynamic from solid
Procedure: Thermodynamic Solubility Assay
Weigh not less than 2 mg of the sample powder into a Whatman Mini-UniPrep vial. If it is required to test the thermodynamic solubility of samples in multiple buffers, a separate vial is needed for each test; add 450 μL of buffer to each Whatman Mini-UniPrep vial, respectively; after that, install the piston cap of Whatman Mini-UniPrep and press it above the liquid level, so that the filter is in contact with the buffer during shaking; shake the solubility sample by vortexing for 1 minute.
Inject 3 UV standard solutions from low to high concentrations into the HPLC, then inject the diluent and supernatant of the test compound, with two replicates of test sample; and integrate the UV peaks. Simulate a standard curve and calculate the thermodynamic solubility of the sample.

[3] = tested on: rash caused by monoclonal EGFR inhibitors; assay: Prevention of rash caused by monoclonal EGFR inhibitors, topical ointment, rat model; assay type: in vivo, SD rats
Procedure: An Experiment to Verify the Prevention of Rash Caused by Monoclonal EGFR Inhibitors with Topical Administration of Compounds of the Present Application on a Rat Animal Model After the SD rats were fed and adapted for one week (about 200 g), the rats were divided into 10 rats per group. The hair on the back of rats was gently removed with an electric razor one day before the experiment, and then an administration test was carried out. The experiments were divided into the administration group with the compound of the present application and the control group. The EGFR monoclonal antibody solution diluted with normal saline was injected via the tail vein twice a week, and the injection rate and time are shown in Table 2. After injection, the administration group applied the compound ointment of the present application on the backs (about 3 cm*3 cm) of rats every day, and the control group applied blank matrix ointment (about 0.5 g) to the backs (about 3 cm*3 cm) of rats every day. After drug application, the rats were fixed with a fixed cyclinder for 4 h; after that, the rats were released and the residual drug at the application site was wiped off with clear water. Monoclonal antibody EGFR inhibitors were injected via the tail vein twice a week, and the compound of the present application and blank ointment were applied once a day until obvious rashes appeared in the control group. […] Table 2 lists the animal experiment combinations of various monoclonal antibody EGFR inhibitors and the compound ointment of the present application, as well as the corresponding experiment results (wherein, the value in the control rate column=the number of rats whose rash is milder in the administration group than that in the control group/the total number of rats in the administration group×100%).

[4] = tested on: rash caused by small molecule EGFR inhibitors; assay: Prevention of rash caused by small molecule EGFR inhibitors, topical ointment, rat model; assay type: in vivo, SD rats
From the text: An Experiment to Verify the Prevention of Rash Caused by Small Molecule EGFR Inhibitors with Topical Administration of Compounds of the Present Application on a Rat Animal Model A rat animal model was established. After daily gavage of a small molecule EGFR inhibitor to female SD rats for […], the rats developed extensive rashes on their backs several days later (picture shown in FIG. 1). […] Similar to humans, rats developed skin rashes on their faces and bodies after oral administration of small molecule EGFR inhibitors. Both of them had the same etiology and very similar symptoms. Therefore, rats are a proper animal model for mimicking EGFR inhibitor-induced rash. After the SD rats were fed and adapted for one week (about 200 g), the rats were divided into 10 rats per group. The hair on the back of rats was gently removed with an electric razor one day before the experiment, and then an intragastric administration test was carried out. EGFR inhibitors were dissolved in a sterile aqueous solution, and diluted with PBS buffer; the amount of each gavage was not more than 2 mL, and the dosage was shown in Table 1. The experiment comprised the administration group and the control group. After intragastric administration, apply the ointment (type and concentration are shown in Table 1) of the compound used in the present application to the backs (about 3 cm*3 cm) of rats in the administration group; apply blank matrix ointment (about 0.5 g) to the backs (about 3 cm*3 cm) of rats in the control group; fix the rats with a fixed cylinder for about 4 hours after drug application, release the rats after 4 hours, wipe off the residual drug at the application site with clean water, and put them back into the cage. The frequency of intragastric administration of EGFR inhibitors is shown in Table 1, but the compounds of the present application and blank matrix ointment are applied only once a day. The intragastric administration and application test were repeated daily until an obvious rash appeared in the control group. […] Table 1 lists the animal experiment combination of various small molecule EGFR inhibitors and the compound ointment of the present application, as well as the corresponding experiment results (wherein, the value in the control rate column=the number of rats whose rash is milder in the administration group than that in the control group/the total number of rats in the administration group×100%).

[5] = tested on: skin contact delayed-type hypersensitivity; assay: Skin contact delayed-type hypersensitivity (DNFB) response test, ear swelling, topical ointment; assay type: in vivo; conditions: topical to ears, DNFB DTH, Balb/c mice, compared to blank ointment
From the text: Therapeutic Effect of Topical Administration of Compounds of the Present Application in Skin Contact Delayed-Type Hypersensitivity Response Test in Mice Delayed-type hypersensitivity (DTH) response in mouse skin is considered to be an effective model for clinical contact dermatitis and other T cell-mediated cutaneous immune diseases, such as atopic dermatitis and psoriasis. The DTH in mice shares the common features with these cutaneous immune diseases, including immunoinfiltration with an increase of inflammatory cytokines and hyperproliferation of keratinocytes. Balb/c mice were sensitized by topical administration of the antigen 2,4-dinitrofluorobenzene (DNFB) to the shaved back of mice on Days 0 and 1. On Day 5, the thickness of the ears was measured using an engineering micrometer. The measurement result was recorded and used as a baseline. The animals were then challenged with a total of 20 μL of DNFB (10 μL for the internal pinna and 10 μL for the external pinna) topically dosed to both ears at a concentration of 0.2%. The ears were measured again 24-72 hours after challenge. The compound ointment of the present application was applied topically to the ears of the animals throughout the allergic and challenge periods (Days −1˜7) or before or throughout the challenge period (generally Days 4˜7). The therapeutic effect was expressed by a reduction in ear swelling compared to that of the blank ointment. The compound causing a reduction of 20% or more was considered effective. Table 5 lists the skin contact delayed-type hypersensitivity experiment results in mice treated with the compound of the present application.

[6] = Plasma stability, human plasma; assay type: in vitro ADME, Humans; conditions: 37° C.
[7] = Plasma stability, mini pig plasma; assay type: in vitro ADME, Mini Pigs; conditions: 37° C.
[8] = aqueous buffer, PBS buffer pH 6.5, about 25° C., read-out: Thermodynamic Solubility pH = 6.5
[9] = oil or lipid, isopropyl myristate as vehicle, about 25° C., read-out: Thermodynamic Solubility in Isopropyl Myristate

With `CCCCCC(=O)OCCN(C)C(=O)n1ccc2c(N(C)[C@H]3CN(C(=O)CC#N)CC[C@H]3C)ncnc21` [Compound A9] the logD [1] was 1.69, the solubility thermodynamic at 24 h [2, 8] was 234 µg/mL (≈ 457 µM) and the solubility thermodynamic at 24 h [2, 9] was 1380 µg/mL (≈ 2690 µM).

`CCC(CC)C(=O)OCCN(C)C(=O)n1ccc2c(N(C)[C@H]3CN(C(=O)CC#N)CC[C@H]3C)ncnc21` [Compound A10] gave a logD [1] of 2.07, a solubility thermodynamic at 24 h [2, 8] of 233 µg/mL (≈ 456 µM) and a solubility thermodynamic at 24 h [2, 9] of 1830 µg/mL (≈ 3580 µM).

Molecule `CCC(C)C(=O)OCCN(C)C(=O)n1ccc2c(N(C)[C@H]3CN(C(=O)CC#N)CC[C@H]3C)ncnc21` (stereo partly drawn) [Compound A11] has a logD [1] of 1.87, a solubility thermodynamic at 24 h [2, 8] of 170 µg/mL (≈ 341 µM) and a solubility thermodynamic at 24 h [2, 9] of 1590 µg/mL (≈ 3200 µM).

Molecule `CCCC(CC)C(=O)OCCN(C)C(=O)n1ccc2c(N(C)[C@H]3CN(C(=O)CC#N)CC[C@H]3C)ncnc21` (stereo partly drawn) [Compound A12] has a logD [1] of 2.72, a solubility thermodynamic at 24 h [2, 8] of 16 µg/mL (≈ 30.4 µM) and a solubility thermodynamic at 24 h [2, 9] of 339 µg/mL (≈ 646 µM). For the same molecule, the “Control Rate” value ([3]; Cetuximab 100 mg/kg twice a week via tail vein, ointment 0.3 wt% once a day, 10 days) was 20%, the “Control Rate” value ([3]; Cetuximab 100 mg/kg twice a week via tail vein, ointment 3.0 wt% once a day, 10 days) was 70% and the “Control Rate” value ([3]; Cetuximab 100 mg/kg twice a week via tail vein, ointment 10.0 wt% once a day, 10 days) was 85%. The “Control Rate” value ([3]; Panitumumab 10 mg/kg twice a week via tail vein, ointment 1.0 wt% once a day, 14 days) was 50%, the “Control Rate” value ([3]; Panitumumab 10 mg/kg twice a week via tail vein, ointment 5.0 wt% once a day, 14 days) was 60% and the “Control Rate” value ([3]; Panitumumab 10 mg/kg twice a week via tail vein, ointment 10.0 wt% once a day, 14 days) was 60%. The “Control Rate” value ([4]; Afatinib 40 mg/kg once a day, ointment 1.0 wt% once a day, 14 days) was 60%, the “Control Rate” value ([4]; Afatinib 40 mg/kg once a day, ointment 3.0 wt% once a day, 14 days) was 75% and the “Control Rate” value ([4]; Afatinib 40 mg/kg once a day, ointment 5.0 wt% once a day, 14 days) was 90%. The “Control Rate” value ([4]; EAI045 80 mg/kg once a day, ointment 1.0 wt% once a day, 11 days) was 60%, the “Control Rate” value ([4]; EAI045 80 mg/kg once a day, ointment 10.0 wt% once a day, 11 days) was 70% and the “Control Rate” value ([4]; Erlotinib 70 mg/kg once a day, ointment 0.3 wt% once a day, 14 days) was 20%. For the same molecule, the “Control Rate” value ([4]; Erlotinib 70 mg/kg once a day, ointment 3.0 wt% once a day, 14 days) was 50%, the “Control Rate” value ([4]; Osimertinib 60 mg/kg twice a day, ointment 0.3 wt% once a day, 10 days) was 50% and the “Control Rate” value ([4]; Osimertinib 60 mg/kg twice a day, ointment 5.0 wt% once a day, 10 days) was 80%.

In the case of `COCCOCC(=O)OCCN(C)C(=O)n1ccc2c(N(C)[C@H]3CN(C(=O)CC#N)CC[C@H]3C)ncnc21` [Compound A18], the “Reduction Rate of Ear Swelling” value ([5]; ointment 0.1 wt%) is reported as 23%, the “Reduction Rate of Ear Swelling” value ([5]; ointment 1.0 wt%) is reported as 29% and the “Reduction Rate of Ear Swelling” value ([5]; ointment 5.0 wt%) is reported as 37%. For the same molecule, the “Reduction Rate of Ear Swelling” value ([5]; ointment 10.0 wt%) was 45%, the logD [1] was 0.23 and the half-life at 2 µM [6] was 1.9 min. For the same molecule, the “% Retained” value ([6]; 0 min) was 100.0%, the “% Retained” value ([6]; 10 min) was 2.6% and the “% Retained” value ([6]; 30 min) was 0.0%. The “% Retained” value ([6]; 60 min) was 0.0%, the “% Retained” value ([6]; 120 min) was 0.0% and the solubility thermodynamic at 24 h [2, 8] was > 4840 µg/mL. The solubility thermodynamic at 24 h [2, 9] was 54.7 µg/mL (≈ 103 µM), the half-life at 2 µM [7] was 9.1 min and the “% Retained” value ([7]; 0 min) was 100.0%. The “% Retained” value ([7]; 10 min) was 57.3%, the “% Retained” value ([7]; 30 min) was 13.5% and the “% Retained” value ([7]; 60 min) was 1.3%. The “% Retained” value ([7]; 120 min) was 0.0%, the “Control Rate” value ([4]; BPI-7711 60 mg/kg once a day, ointment 3.0 wt% once a day, 14 days) was 70% and the “Control Rate” value ([4]; EAI045 80 mg/kg once a day, ointment 0.3 wt% once a day, 11 days) was 30%. The “Control Rate” value ([4]; EAI045 80 mg/kg once a day, ointment 3.0 wt% once a day, 11 days) was 70%, the “Control Rate” value ([4]; EAI045 80 mg/kg once a day, ointment 5.0 wt% once a day, 11 days) was 90% and the “Control Rate” value ([4]; Zorifertinib 60 mg/kg once a day, ointment 3.0 wt% once a day, 12 days) was 60%.

With `CCC(=O)OCCN(C)C(=O)n1ccc2c(N(C)[C@H]3CN(C(=O)CC#N)CC[C@H]3C)ncnc21` [Compound A20] the logD [1] was 0.97, the solubility thermodynamic at 24 h [2, 8] was 2430 µg/mL (≈ 5180 µM) and the solubility thermodynamic at 24 h [2, 9] was 779 µg/mL (≈ 1660 µM).
